Usually IC50 stands for the concentration that gives 50% inhibition. One may read the EC50 as the concentration needed to bring the measured effect to its halfway point.

In one assay the target is Cytochrome P450 2D6 (Homo sapiens, UniProt P10635). In words: qHTS Assay for Inhibitors and Substrates of Cytochrome P450 2D6. [Related pubchem assays: 410 ]. To be noted: read-out: Potency. It is filed as ADME.
Assay [1] is described as follows: Luminescence-based dose response cell-based high throughput screening assay for cytotoxic compounds using the IEC-6 intestinal epithelial cell line. [Related pubchem assays: 1858 (Summary AID.), 1825 (Counterscreen.), 1907 (Confirmation screen.)]. The format is functional. (The purpose of a counterscreen is to sort out artefacts and off-target activity.)
The nature of assay [2]: cytotoxicity in HPDE-C7 cells, cell-based, fluorescence, HTS (AID 430). The format is functional. The note with it: Homo sapiens.
A short description of assay [3]: cytotoxicity in KRAS-transformed pancreatic duct cells, primary screen, cell-based, fluorescence, HTS (AID 431).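 Further: cell line used: HPDE-C7K.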 It is filed as functional. The note with it: Homo sapiens.
For the next assay, the target named is NS3 (Hepatitis C virus, UniProt A3EZJ3). In words: PubChem AID 2173. Set-up: species or system Hepacivirus hominis.
In assay [4] the target is T1, Neuropeptide Y receptor type 1 (Homo sapiens, UniProt P25929).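 Further: HEK293 cells with a CNG channel challenged with NPY then isoproterenol; potency as antagonist that reverses NPY suppression of cAMP signal.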
T1 sequence (P25929 whole entry): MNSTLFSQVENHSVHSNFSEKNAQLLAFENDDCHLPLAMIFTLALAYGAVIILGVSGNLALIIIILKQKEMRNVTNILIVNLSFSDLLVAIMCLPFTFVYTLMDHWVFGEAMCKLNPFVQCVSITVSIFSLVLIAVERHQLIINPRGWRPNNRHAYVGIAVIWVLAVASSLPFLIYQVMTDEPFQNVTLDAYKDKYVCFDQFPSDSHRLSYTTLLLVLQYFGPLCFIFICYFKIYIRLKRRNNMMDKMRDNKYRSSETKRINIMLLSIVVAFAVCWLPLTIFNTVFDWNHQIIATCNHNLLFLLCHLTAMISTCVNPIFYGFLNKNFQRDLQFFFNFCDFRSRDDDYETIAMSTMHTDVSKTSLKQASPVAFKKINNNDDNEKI
It is filed as functional.

Assay [5] concerns the target T2, Neuropeptide Y receptor type 2 (Homo sapiens, UniProt P49146).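 Further: HEK293 cells expressing the receptor and a CNG channel; stimulus was NPY near EC95 followed by isoproterenol to raise cAMP; antagonist potency measured as restoring cAMP signal that NPY suppresses.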
T2 sequence (P49146 whole entry): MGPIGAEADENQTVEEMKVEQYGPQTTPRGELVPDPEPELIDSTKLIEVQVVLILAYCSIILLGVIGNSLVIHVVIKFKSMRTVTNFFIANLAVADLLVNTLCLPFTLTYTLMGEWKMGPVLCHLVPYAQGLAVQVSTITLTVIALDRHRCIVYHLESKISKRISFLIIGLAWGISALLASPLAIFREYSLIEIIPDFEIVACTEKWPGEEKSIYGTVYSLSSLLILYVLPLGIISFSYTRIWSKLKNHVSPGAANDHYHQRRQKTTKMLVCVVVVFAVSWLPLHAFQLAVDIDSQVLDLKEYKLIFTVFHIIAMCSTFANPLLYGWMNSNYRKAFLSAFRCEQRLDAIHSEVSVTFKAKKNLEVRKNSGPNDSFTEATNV
The format is functional, cell-based.

For assay [6], the target named is T3, Aryl hydrocarbon receptor (Homo sapiens, UniProt P35869).
T3 sequence (P35869 whole entry): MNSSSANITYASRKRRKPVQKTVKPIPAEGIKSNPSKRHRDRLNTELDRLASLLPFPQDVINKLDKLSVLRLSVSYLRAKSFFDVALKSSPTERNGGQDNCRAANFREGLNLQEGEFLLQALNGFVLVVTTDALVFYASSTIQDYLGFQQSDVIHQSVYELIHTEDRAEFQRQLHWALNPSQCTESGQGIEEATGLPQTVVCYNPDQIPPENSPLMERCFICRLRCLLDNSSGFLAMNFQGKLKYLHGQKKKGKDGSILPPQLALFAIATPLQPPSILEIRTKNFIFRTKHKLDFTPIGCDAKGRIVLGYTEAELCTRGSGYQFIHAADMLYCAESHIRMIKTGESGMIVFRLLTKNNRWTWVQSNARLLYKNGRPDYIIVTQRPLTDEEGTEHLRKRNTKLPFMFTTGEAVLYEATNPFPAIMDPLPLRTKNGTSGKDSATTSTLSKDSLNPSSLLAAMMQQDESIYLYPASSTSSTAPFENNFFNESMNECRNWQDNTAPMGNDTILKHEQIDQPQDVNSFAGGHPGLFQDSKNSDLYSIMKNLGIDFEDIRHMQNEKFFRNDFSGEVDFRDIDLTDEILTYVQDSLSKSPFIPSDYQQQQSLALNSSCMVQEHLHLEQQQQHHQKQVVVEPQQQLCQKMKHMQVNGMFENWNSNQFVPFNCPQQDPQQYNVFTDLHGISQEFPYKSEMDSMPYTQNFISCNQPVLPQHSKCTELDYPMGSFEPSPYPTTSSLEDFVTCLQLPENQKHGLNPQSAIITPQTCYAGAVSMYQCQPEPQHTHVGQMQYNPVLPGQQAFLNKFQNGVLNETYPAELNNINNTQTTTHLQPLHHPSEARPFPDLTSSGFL
In words: Luminescence-based cell-based high throughput dose response assay for activators of the Aryl Hydrocarbon Receptor (AHR). [Related pubchem assays: 2796 (Primary screen (AHR activators in singlicate)), 2845 (Confirmation screen (AHR activators in triplicate)), 434939 (Counterscreen (PXR activators in triplicate)), 2804 (Summary (AHR activators))]. It is filed as ADME.

For assay [7], the target named is T4, Insulin-degrading enzyme (Homo sapiens, UniProt P14735).
T4 sequence (P14735 whole entry): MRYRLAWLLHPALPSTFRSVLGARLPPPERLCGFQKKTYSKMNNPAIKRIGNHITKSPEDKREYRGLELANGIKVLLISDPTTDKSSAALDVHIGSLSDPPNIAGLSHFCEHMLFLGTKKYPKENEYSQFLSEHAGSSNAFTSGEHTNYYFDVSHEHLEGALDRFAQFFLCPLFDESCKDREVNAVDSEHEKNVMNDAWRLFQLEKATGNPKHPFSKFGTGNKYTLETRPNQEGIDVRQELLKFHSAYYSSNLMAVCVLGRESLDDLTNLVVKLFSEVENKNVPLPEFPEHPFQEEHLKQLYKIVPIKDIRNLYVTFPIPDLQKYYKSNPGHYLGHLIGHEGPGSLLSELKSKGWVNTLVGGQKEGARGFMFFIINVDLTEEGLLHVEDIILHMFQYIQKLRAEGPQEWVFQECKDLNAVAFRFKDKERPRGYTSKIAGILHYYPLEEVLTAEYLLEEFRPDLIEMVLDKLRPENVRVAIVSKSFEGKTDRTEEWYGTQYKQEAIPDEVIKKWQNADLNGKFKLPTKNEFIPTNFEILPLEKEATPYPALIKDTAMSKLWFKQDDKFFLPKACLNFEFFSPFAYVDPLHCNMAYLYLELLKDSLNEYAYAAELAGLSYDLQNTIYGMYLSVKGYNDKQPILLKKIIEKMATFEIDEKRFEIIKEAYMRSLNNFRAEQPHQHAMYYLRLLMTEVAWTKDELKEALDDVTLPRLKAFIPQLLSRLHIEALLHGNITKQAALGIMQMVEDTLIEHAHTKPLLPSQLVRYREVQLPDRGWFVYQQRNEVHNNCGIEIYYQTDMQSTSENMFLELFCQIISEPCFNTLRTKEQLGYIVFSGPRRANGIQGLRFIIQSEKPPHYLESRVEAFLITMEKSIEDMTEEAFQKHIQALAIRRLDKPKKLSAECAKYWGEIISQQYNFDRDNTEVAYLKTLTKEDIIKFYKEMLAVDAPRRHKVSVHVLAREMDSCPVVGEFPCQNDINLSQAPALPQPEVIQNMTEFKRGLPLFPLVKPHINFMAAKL
In words: activators of recombinant IDE enzyme, dose response, counter-screen for IDE activator project, biochemical, fluorescence polarization (AID 588681).

Assay [8] addresses T4, Insulin-degrading enzyme. In words: activators of endogenous IDE in HEK cells, dose response, cell-based, fluorescence polarization (AID 588439). It is filed as functional. Background: In fluorescence polarisation assays a small probe gives low polarisation when free and higher when bound to something large.
In assay [9] the target is Beta-lactamase (Pseudomonas aeruginosa, UniProt Q79MP6).
Assay [10] deals with HEK293. Description: optical interference in Abeta FP readout, dose response, artefact control for IDE activator project, biochemical, fluorescence polarization (AID 588442). It is filed as functional, cell-based. To be noted: Homo sapiens.
The target in assay [11] is Beta-lactamase (Salmonella choleraesuis (strain SC-B67), UniProt Q5J463).
Assay [12] deals with E3 ubiquitin-protein ligase XIAP (Homo sapiens, UniProt P98170). Description: Counter Screen using XIAP-Bir3 for Chemical Antagonists of Bir1/2 domains of IAP-family anti-apoptotic proteins. [Related pubchem assays (depositor defined):AID1018, AID1449, AID1514, AID1638, AID1749, AID1750, AID488957, AID488963].
The test system of assay [13] is HEK293. In words: HEK cell cytotoxicity by LDH release, dose response, cytotoxicity control for IDE activator project, fluorescence, HEK cells (AID 588440).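 Further: cytotoxicity by LDH release measuring loss of membrane integrity.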 It is filed as functional, cell-based. The note with it: Homo sapiens. (LDH in the medium is a marker of cell lysis.)
Assay [14] addresses ATP-dependent molecular chaperone HSP82 (Candida albicans (strain WO-1) (Yeast), UniProt C4YTQ8). Description: loss of DOC-induced GRE-beta-galactosidase reporter signal, dose response, Hsp90 inhibitor project, S. cerevisiae, luminescence (AID 2400).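 Further: beta-galactosidase luminescence from glucocorticoid response element reporter as proxy for Hsp90 function; inhibitor potency where signal loss means Hsp90 inhibition.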 It is filed as functional, cell-based.
Assay [15] concerns the target T5, Serine/threonine-protein phosphatase (Candida dubliniensis (strain CD36 / CBS 7987 / NCPF 3949 / NRRLY-17841) (Yeast), UniProt B9W6M3).
T5 sequence (B9W6M3 whole entry): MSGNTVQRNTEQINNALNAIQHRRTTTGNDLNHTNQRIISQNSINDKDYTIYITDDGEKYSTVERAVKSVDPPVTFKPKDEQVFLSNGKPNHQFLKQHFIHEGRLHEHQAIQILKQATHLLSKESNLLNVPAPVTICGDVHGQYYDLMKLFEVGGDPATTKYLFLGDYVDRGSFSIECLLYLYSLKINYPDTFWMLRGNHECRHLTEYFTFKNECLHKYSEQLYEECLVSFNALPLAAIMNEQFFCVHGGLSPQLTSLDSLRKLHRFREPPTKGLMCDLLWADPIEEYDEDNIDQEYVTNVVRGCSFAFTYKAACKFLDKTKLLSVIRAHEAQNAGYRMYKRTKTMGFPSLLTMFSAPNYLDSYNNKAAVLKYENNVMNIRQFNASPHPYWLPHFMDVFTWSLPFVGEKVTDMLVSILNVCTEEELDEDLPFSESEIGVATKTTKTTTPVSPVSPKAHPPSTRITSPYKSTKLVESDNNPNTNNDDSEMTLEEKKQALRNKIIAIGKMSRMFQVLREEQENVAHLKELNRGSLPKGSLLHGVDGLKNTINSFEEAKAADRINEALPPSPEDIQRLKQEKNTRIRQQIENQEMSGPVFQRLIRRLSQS
Description: calcineurin pathway inhibitors in yeast reporter, dose response, S. cerevisiae, CDRE-lacZ, luminescence, secondary (AID 2388).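 Further: yeast reporter cells carrying a calcineurin-responsive lacZ construct stimulated with calcium chloride; luminescent beta-galactosidase reporter signal in whole cells rather than isolated phosphatase activity; potency for inhibition where a drop in reporter signal means calcineurin blockade.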 It is filed as functional, cell-based.

Assay [16] in a line: HIV-1 Env-mediated cell fusion inhibitors, dose response, CCR5-tropic Env (AID 2279). It is filed as functional.
Assay [17] in a line: C. albicans growth with fluconazole, confirmation, fluorescence, retest (AID 2467). It is filed as functional, cell-based.
For the next assay, the target named is Large T antigen (Simian virus 40, UniProt P03070). It is filed as functional, Betapolyomavirus macacae.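 Further: Confirmatory-stage PubChem screen for compounds that inhibit SV40 T antigen.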
Assay [18] can be described thus: NIH-3T3 fibroblast cytotoxicity, dose response, cytotoxicity control, cell-based, fluorescence, Alamar Blue, secondary assay (AID 2327).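 Further: NIH-3T3 mouse fibroblasts cultured with fluconazole at 8 µg/mL.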 It is filed as functional.

Each structure is given as a SMILES string. Activity calls are given as the source filed them.

Chain of Cytochrome P450 2D6 (P10635 whole entry): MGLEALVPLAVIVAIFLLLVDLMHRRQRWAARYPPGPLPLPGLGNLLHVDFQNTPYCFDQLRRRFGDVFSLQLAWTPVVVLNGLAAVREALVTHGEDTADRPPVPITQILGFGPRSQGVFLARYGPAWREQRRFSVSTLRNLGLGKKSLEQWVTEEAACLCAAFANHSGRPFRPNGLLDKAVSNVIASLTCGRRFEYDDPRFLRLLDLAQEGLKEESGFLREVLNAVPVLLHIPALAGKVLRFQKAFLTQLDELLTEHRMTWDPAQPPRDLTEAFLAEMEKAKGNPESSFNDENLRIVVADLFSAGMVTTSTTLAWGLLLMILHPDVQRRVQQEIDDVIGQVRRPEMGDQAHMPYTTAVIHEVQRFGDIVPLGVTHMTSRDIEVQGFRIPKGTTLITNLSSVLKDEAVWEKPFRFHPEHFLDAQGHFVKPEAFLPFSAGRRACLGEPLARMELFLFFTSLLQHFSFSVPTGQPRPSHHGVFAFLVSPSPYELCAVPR
Chain of NS3 (A3EZJ3 whole entry): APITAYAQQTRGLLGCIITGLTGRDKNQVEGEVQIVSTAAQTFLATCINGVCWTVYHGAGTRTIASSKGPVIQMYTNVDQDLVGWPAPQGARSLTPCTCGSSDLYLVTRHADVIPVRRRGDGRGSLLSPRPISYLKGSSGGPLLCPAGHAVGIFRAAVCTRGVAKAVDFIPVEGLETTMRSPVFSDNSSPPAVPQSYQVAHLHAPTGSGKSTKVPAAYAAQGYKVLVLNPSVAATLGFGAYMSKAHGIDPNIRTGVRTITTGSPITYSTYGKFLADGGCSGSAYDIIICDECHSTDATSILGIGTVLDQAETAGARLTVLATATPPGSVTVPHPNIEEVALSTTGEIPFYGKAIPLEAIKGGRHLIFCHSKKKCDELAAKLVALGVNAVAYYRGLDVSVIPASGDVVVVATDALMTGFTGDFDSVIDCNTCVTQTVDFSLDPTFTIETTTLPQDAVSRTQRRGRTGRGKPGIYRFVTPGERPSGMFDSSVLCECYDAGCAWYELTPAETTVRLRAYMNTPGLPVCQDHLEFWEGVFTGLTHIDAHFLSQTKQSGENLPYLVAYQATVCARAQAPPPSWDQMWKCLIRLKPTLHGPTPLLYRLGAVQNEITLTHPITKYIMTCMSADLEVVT
Chain of Beta-lactamase (Pseudomonas aeruginosa, UniProt Q79MP6) (Q79MP6 whole entry): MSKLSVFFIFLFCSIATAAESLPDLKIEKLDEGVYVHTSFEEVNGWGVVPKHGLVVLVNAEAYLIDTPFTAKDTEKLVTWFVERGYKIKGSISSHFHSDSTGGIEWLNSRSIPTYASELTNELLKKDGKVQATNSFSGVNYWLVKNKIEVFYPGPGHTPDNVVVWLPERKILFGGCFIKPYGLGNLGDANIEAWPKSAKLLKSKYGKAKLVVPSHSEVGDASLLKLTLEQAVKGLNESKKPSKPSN
Chain of Large T antigen (P03070 whole entry): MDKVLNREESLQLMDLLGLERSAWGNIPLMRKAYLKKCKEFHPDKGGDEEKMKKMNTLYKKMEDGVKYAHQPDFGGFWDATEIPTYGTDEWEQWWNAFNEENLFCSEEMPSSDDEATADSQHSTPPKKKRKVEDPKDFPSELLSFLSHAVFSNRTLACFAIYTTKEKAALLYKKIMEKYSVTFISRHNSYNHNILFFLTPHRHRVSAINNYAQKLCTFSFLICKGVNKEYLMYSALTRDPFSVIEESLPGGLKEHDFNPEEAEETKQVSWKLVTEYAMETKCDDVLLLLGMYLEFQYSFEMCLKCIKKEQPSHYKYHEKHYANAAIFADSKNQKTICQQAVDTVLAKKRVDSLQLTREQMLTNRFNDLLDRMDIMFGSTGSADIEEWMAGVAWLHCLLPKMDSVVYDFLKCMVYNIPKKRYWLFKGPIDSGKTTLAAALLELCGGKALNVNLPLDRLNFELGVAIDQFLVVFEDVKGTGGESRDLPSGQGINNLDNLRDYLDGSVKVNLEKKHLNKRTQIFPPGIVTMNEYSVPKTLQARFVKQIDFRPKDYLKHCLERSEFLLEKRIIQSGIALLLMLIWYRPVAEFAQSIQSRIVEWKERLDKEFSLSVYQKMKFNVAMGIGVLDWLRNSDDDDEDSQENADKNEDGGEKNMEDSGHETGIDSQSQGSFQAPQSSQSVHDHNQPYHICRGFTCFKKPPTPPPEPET
Chain of E3 ubiquitin-protein ligase XIAP (P98170 whole entry): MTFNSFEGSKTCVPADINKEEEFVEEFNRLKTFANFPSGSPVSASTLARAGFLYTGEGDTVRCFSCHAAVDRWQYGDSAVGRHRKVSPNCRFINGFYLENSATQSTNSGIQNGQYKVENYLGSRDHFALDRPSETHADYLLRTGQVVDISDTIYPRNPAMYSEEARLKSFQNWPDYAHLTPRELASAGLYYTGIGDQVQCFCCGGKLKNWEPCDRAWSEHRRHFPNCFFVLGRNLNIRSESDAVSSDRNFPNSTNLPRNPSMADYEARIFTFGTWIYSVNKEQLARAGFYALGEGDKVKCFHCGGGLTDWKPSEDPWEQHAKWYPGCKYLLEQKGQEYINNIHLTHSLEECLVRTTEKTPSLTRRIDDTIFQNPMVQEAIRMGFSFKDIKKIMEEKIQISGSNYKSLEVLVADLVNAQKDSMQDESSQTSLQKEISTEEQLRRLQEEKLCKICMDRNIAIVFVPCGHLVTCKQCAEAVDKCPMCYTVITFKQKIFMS
Chain of ATP-dependent molecular chaperone HSP82 (C4YTQ8 whole entry): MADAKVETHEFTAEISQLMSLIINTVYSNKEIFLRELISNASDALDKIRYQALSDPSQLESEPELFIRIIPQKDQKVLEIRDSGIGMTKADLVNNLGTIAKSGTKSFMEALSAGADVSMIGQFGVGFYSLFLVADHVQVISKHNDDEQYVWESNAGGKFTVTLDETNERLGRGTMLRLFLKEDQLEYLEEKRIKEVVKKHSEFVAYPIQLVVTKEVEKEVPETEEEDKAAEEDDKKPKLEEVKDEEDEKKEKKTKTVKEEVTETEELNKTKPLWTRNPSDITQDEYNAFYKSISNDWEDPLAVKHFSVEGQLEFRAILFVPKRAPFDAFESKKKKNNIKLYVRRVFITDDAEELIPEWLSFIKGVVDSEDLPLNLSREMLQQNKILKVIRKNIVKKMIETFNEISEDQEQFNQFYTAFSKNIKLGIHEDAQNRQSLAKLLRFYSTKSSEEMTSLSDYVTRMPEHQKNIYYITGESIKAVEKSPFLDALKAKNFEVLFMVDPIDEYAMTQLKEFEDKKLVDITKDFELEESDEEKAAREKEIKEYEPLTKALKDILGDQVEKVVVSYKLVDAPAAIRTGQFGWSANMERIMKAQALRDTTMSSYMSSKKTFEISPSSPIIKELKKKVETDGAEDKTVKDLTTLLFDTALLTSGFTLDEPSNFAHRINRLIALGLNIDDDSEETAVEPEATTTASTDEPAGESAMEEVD
Chain of Beta-lactamase (Salmonella choleraesuis (strain SC-B67), UniProt Q5J463) (Q5J463 whole entry): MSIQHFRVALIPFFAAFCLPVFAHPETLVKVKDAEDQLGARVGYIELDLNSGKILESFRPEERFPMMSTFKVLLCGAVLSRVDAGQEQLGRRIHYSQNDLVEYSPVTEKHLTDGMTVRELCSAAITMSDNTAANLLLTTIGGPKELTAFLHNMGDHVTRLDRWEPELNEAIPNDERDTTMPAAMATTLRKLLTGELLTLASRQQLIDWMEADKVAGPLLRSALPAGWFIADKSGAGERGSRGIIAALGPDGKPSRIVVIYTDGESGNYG

As for `C=C(C)C(O)/C=C/c1ccc(Br)cc1` (stereo unspecified), at Cytochrome P450 2D6, the AC50 was 3.16 µM (inconclusive).
As to `CCC[C@@H](CNC)NC[C@H](Cc1ccccc1)NCCCCc1ccccc1`, in assay [1], the half-maximal inhibitory concentration (IC50) is 5.4 µM (active).
In the case of `COC(=O)C1C(C)OC(=O)NC1c1ccccc1` (stereo unspecified), at Cytochrome P450 2D6, the AC50 was 3.16 µM (inconclusive).
In the case of `O=C(c1ccc2nc(-c3ccco3)c(-c3ccco3)nc2c1)N1CCN(c2ccccc2)CC1`, the concentration giving a half-maximal response (EC50) in [2] was 18 µM (active); in assay [3] it was > 20 µM (not active). In addition, the 50% inhibitory concentration (IC50) at NS3 is 19.7 µM (not active).
Turning to `CCCCNC(=O)c1onc(CSc2ccccc2F)c1C(=O)O`, the half-inhibitory concentration (IC50) in [4] is 14.7 µM (not active); in assay [5], 13.3 µM (not active).
With `O=C(/C=C\c1cccs1)c1c(O)ccc2ccc(=O)oc12`, the EC50 in assay [6] is 3.41 µM (active).
In the case of `Nn1c(Cc2cccc3ccccc23)nnc1SCc1c(Cl)cccc1Cl`, the IC50 was 5.1 µM (active) in assay [4] and 4.3 µM (active) in assay [5].
As to `Cc1ccccc1-c1nc(-c2cccnc2)no1`, the EC50 in [6] was 1.74 µM (active).
With `O=c1ccc2c(-c3ccccc3)c3ccc(O)cc3oc-2c1`, the EC50 on Insulin-degrading enzyme [7], on Insulin-degrading enzyme [8] and in the assay with HEK293 [10] was > 54.6 µM (inactive) in each case. Moreover, the IC50 at Beta-lactamase [9] was 0.399 µM (active); on Beta-lactamase [11], 0.19 µM (active); in [12] it was > 20 µM (inactive); in the assay with HEK293 [13] it was > 89.1 µM (inactive); on NS3, 7.38 µM (active).
In the case of `O=C(N/N=C/c1cc(Br)c(O)c(Br)c1)c1cc2c(ccc3ccccc32)o1`, the EC50 in assay [14] was 0.763 µM (active); in assay [15] it was 2.58 µM (active); in assay [17], 1.45 µM (active); in assay [18] it was 64.7 µM (active). Also, the IC50 in [16] is > 50 µM (active); at Large T antigen it was 19.9 µM (active).

The values above are taken from ChEMBL document CHEMBL1201862, “PubChem BioAssay data set” (2004).
